Tests used:
[1] = test system: HCT-116; test: Cytotoxicity against human HCT116 cells assessed as growth inhibition incubated for 48 hrs by Hoechst 33342 staining based assay; assay type: cell-based; details: HCT-116, 48 h
[2] = target: Bone morphogenetic protein receptor type-2 (Homo sapiens) (UniProt Q13873); test: Binding affinity to wild-type human partial length BMPR2 (R179 to Q526 residues) expressed in mammalian expression system assessed as residual binding level at 10 uM by Kinomescan method relative to control
Sequence of Bone morphogenetic protein receptor type-2 (Homo sapiens) (Q13873 whole entry, the tested form may be a part): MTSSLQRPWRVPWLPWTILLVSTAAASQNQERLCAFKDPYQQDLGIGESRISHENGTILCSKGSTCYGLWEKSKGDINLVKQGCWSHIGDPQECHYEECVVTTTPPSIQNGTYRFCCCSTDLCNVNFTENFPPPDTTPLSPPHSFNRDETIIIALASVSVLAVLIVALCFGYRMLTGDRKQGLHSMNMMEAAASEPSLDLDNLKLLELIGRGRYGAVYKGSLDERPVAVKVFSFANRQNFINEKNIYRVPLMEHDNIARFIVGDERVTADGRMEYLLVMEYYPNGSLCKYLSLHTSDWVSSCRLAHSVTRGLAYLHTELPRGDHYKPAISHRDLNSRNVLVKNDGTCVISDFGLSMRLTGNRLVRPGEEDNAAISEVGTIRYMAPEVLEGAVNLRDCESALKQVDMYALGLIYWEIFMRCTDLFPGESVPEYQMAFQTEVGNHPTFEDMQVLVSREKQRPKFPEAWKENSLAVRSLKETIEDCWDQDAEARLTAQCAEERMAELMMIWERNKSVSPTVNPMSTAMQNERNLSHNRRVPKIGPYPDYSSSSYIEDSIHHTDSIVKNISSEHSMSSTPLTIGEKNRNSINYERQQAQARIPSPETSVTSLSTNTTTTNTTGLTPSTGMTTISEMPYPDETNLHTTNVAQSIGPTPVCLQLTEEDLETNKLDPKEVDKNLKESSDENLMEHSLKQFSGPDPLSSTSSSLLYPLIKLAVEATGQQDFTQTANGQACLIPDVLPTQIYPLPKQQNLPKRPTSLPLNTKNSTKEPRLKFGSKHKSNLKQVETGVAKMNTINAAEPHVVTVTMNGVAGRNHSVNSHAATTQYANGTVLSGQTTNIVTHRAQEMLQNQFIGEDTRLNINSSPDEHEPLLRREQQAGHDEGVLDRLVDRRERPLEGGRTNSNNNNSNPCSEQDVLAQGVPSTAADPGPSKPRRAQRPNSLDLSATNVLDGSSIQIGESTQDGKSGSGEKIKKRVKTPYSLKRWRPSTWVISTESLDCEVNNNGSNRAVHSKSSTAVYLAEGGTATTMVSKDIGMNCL

[3] = target: Calcium/calmodulin-dependent protein kinase type II subunit delta (Homo sapiens) (UniProt Q13557); test: Binding affinity to wild-type human partial length CAMK2D (M1 to E329 residues) expressed in bacterial expression system assessed as residual binding level at 10 uM by Kinomescan method relative to control
[4] = target: Cyclin-dependent kinase 19 (Homo sapiens) (UniProt Q9BWU1); test: Binding affinity to wild-type human partial length CDK11 (M1 to N360 residues) expressed in bacterial expression system assessed as residual binding level at 10 uM by Kinomescan method relative to control
[5] = target: Macrophage colony-stimulating factor 1 receptor (Homo sapiens) (UniProt P07333); test: Binding affinity to wild-type human partial length autoinhibited CSF1R (Y538 to S939 residues) expressed in mammalian expression system assessed as residual binding level at 10 uM by Kinomescan method relative to control
[6] = target: Serine/threonine-protein kinase MRCK gamma (Homo sapiens) (UniProt Q6DT37); test: Binding affinity to wild-type human partial length DMPK2 (S46 to S408 residues) expressed in bacterial expression system assessed as residual binding level at 10 uM by Kinomescan method relative to control
[7] = target: Mitogen-activated protein kinase 3 (Homo sapiens) (UniProt P27361); test: Binding affinity to wild-type human full length ERK1 (M1 to P379 residues) expressed in bacterial expression system assessed as residual binding level at 10 uM by Kinomescan method relative to control
[8] = target: Fibroblast growth factor receptor 4 (Homo sapiens) (UniProt P22455); test: Binding affinity to wild-type human partial length FGFR4 (G402 to E713 residues) expressed in bacterial expression system assessed as residual binding level at 10 uM by Kinomescan method relative to control
[9] = test system: Receptor-type tyrosine-protein kinase FLT3 (Homo sapiens), P36888 [R834Q]; test: Binding affinity to human partial length FLT3 R834Q mutant (V592 to Y969 residues) expressed in mammalian expression system assessed as residual binding level at 10 uM by Kinomescan method relative to control
[10] = target: G protein-coupled receptor kinase 4 (Homo sapiens) (UniProt P32298); test: Binding affinity to wild-type human full length GRK4 (M1 to C578 residues) expressed in bacterial expression system assessed as residual binding level at 10 uM by Kinomescan method relative to control
Sequence of G protein-coupled receptor kinase 4 (Homo sapiens) (P32298 whole entry, looked up, the tested form may be a part): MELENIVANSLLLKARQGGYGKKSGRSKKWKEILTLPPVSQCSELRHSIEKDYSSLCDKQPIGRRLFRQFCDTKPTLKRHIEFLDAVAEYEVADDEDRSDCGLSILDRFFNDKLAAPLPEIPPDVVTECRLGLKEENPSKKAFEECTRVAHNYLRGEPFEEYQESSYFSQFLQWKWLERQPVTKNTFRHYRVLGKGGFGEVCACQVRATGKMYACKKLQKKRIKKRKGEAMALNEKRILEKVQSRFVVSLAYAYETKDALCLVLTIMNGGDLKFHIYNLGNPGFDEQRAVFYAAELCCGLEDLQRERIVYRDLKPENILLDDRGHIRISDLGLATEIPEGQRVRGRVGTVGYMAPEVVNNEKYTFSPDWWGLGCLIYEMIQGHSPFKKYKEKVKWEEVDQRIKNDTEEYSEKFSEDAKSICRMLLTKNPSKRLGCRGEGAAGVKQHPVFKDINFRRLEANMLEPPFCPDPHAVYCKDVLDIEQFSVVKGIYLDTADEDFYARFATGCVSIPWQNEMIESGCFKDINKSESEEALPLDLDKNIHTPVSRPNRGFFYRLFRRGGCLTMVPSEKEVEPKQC

[11] = target: Mitogen-activated protein kinase 10 (Homo sapiens) (UniProt P53779); test: Binding affinity to wild-type human partial length JNK3 (V28 to Q422 residues) expressed in mammalian expression system assessed as residual binding level at 10 uM by Kinomescan method relative to control
Sequence of Mitogen-activated protein kinase 10 (Homo sapiens) (P53779 whole entry, the tested form may be a part): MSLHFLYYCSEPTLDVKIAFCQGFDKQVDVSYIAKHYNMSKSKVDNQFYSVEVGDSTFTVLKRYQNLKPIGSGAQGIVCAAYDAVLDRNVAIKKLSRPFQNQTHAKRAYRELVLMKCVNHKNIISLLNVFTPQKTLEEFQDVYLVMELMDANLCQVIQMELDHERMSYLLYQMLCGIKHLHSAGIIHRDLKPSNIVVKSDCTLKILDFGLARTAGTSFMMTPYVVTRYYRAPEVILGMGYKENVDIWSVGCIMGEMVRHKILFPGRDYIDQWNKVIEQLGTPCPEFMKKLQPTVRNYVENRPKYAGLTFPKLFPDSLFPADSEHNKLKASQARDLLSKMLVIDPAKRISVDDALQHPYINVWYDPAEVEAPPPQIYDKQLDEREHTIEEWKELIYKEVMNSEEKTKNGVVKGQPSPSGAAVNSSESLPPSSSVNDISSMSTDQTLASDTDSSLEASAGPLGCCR

[12] = target: Serine/threonine-protein kinase STK11 (Homo sapiens) (UniProt Q15831); test: Binding affinity to wild-type human full length LKB1 (M1 to Q433 residues) expressed in bacterial expression system assessed as residual binding level at 10 uM by Kinomescan method relative to control
[13] = target: Leucine-rich repeat serine/threonine-protein kinase 2 (Homo sapiens) (UniProt Q5S007); test: Binding affinity to wild-type human partial length LRRK2 (H970 to E2527 residues) expressed in mammalian expression system assessed as residual binding level at 10 uM by Kinomescan method relative to control
[14] = target: MAP/microtubule affinity-regulating kinase 4 (Homo sapiens) (UniProt Q96L34); test: Binding affinity to wild-type human partial length MARK4 (K29 to G340 residues) expressed in bacterial expression system assessed as residual binding level at 10 uM by Kinomescan method relative to control
[15] = target: Serine/threonine-protein kinase MRCK beta (Homo sapiens) (UniProt Q9Y5S2); test: Binding affinity to wild-type human partial length MRCKB (L56 to S417 residues) expressed in bacterial expression system assessed as residual binding level at 10 uM by Kinomescan method relative to control
[16] = target: Mitogen-activated protein kinase 12 (Homo sapiens) (UniProt P53778); test: Binding affinity to wild-type human full length p38-gamma (M1 to L367 residues) expressed in mammalian expression system assessed as residual binding level at 10 uM by Kinomescan method relative to control
[17] = target: Cyclin-dependent kinase 15 (Homo sapiens) (UniProt Q96Q40); test: Binding affinity to wild-type human full length PFTAIRE2 (M1 to W384 residues) expressed in bacterial expression system assessed as residual binding level at 10 uM by Kinomescan method relative to control
[18] = target: cAMP-dependent protein kinase catalytic subunit beta (Homo sapiens) (UniProt P22694); test: Binding affinity to wild-type human full length PKAC-beta (M1 to F351 residues) expressed in bacterial expression system assessed as residual binding level at 10 uM by Kinomescan method relative to control
[19] = target: Serine/threonine-protein kinase PLK1 (Homo sapiens) (UniProt P53350); test: Binding affinity to wild-type human partial length PLK1 (A33 to F325 residues) expressed in mammalian expression system assessed as residual binding level at 10 uM by Kinomescan method relative to control
Sequence of Serine/threonine-protein kinase PLK1 (Homo sapiens) (P53350 whole entry, the tested form may be a part): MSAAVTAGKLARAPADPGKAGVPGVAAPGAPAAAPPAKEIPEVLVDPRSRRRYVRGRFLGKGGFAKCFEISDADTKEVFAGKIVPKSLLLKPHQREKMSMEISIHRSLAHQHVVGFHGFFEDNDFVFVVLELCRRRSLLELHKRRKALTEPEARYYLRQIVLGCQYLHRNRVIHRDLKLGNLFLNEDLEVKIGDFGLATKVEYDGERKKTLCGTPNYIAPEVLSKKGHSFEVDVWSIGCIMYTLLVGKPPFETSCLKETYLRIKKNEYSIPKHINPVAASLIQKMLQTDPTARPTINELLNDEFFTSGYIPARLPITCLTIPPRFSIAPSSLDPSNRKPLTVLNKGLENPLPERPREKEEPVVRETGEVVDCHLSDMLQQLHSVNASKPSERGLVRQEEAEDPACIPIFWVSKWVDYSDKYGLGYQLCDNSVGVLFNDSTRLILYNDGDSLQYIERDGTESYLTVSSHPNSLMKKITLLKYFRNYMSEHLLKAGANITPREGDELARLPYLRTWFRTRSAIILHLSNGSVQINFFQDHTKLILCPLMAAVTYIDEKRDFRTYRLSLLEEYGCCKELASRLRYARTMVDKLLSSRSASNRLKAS

[20] = test system: Proto-oncogene tyrosine-protein kinase receptor Ret (Homo sapiens), P07949 [M918T]; test: Binding affinity to human partial length RET M918T mutant (E713 to D1014 residues) expressed in bacterial expression system assessed as residual binding level at 10 uM by Kinomescan method relative to control
Sequence of Proto-oncogene tyrosine-protein kinase receptor Ret (Homo sapiens), P07949 [M918T] (P07949 whole entry M918T, the tested form may be a part): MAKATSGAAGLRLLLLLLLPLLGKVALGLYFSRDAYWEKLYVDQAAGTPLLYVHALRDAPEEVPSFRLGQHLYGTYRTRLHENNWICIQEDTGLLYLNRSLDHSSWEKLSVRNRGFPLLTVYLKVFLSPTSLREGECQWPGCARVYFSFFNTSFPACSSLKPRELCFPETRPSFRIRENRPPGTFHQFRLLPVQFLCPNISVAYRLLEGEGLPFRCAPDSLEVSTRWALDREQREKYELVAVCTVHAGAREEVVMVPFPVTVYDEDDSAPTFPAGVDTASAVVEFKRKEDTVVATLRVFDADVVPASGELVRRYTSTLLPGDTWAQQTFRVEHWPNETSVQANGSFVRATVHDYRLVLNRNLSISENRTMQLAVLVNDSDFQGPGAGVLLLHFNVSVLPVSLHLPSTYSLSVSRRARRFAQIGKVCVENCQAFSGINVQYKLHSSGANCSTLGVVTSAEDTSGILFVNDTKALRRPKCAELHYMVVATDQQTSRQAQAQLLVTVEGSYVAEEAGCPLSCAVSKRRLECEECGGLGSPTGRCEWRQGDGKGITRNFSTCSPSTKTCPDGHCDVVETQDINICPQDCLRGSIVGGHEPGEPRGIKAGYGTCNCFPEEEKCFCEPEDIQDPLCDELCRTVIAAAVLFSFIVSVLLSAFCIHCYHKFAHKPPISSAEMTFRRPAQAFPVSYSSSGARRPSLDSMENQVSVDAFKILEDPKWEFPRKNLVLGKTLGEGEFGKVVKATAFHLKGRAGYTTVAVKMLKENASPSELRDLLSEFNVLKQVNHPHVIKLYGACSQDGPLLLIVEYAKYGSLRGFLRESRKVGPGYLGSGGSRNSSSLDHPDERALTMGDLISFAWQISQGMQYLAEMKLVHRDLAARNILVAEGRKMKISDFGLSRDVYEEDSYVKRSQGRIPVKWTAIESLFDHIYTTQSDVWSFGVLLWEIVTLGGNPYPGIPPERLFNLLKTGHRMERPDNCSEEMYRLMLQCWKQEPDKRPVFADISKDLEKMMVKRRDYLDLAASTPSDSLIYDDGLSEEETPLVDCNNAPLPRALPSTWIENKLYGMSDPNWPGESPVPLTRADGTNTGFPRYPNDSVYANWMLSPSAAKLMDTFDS

[21] = target: Ribosomal protein S6 kinase alpha-6 (Homo sapiens) (UniProt Q9UK32); test: Binding affinity to wild-type human partial length N-terminal RSK4 kinase domain 1 (M1 to E397 residues) expressed in mammalian expression system assessed as residual binding level at 10 uM by Kinomescan method relative to control
[22] = target: Serine/threonine-protein kinase SBK1 (Homo sapiens) (UniProt Q52WX2); test: Binding affinity to wild-type human partial length SBK1 (P23 to P348 residues) expressed in mammalian expression system assessed as residual binding level at 10 uM by Kinomescan method relative to control
[23] = target: SRSF protein kinase 3 (Homo sapiens) (UniProt Q9UPE1); test: Binding affinity to wild-type human partial length SRPK3 (P41 to P567 residues) expressed in bacterial expression system assessed as residual binding level at 10 uM by Kinomescan method relative to control
Sequence of SRSF protein kinase 3 (Homo sapiens) (Q9UPE1 whole entry, the tested form may be a part): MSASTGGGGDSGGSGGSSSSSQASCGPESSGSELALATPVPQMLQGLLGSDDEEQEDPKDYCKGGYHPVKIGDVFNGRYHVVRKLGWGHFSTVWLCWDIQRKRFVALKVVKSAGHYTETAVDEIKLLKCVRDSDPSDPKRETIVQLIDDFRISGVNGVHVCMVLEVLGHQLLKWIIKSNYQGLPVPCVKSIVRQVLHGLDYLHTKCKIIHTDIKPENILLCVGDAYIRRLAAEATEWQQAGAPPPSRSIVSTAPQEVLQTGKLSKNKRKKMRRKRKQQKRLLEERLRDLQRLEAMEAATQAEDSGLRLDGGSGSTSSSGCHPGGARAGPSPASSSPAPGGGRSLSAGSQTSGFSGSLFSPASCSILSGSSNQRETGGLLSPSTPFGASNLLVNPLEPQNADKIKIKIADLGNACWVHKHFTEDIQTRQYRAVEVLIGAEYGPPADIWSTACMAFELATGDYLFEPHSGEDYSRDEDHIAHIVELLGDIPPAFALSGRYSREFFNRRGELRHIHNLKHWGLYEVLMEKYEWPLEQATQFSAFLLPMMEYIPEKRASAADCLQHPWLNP

[24] = target: Serine/threonine-protein kinase 35 (Homo sapiens) (UniProt Q8TDR2); test: Binding affinity to wild-type human partial length STK35 (G182 to A534 residues) expressed in bacterial expression system assessed as residual binding level at 10 uM by Kinomescan method relative to control
Sequence of Serine/threonine-protein kinase 35 (Homo sapiens) (Q8TDR2 whole entry, the tested form may be a part): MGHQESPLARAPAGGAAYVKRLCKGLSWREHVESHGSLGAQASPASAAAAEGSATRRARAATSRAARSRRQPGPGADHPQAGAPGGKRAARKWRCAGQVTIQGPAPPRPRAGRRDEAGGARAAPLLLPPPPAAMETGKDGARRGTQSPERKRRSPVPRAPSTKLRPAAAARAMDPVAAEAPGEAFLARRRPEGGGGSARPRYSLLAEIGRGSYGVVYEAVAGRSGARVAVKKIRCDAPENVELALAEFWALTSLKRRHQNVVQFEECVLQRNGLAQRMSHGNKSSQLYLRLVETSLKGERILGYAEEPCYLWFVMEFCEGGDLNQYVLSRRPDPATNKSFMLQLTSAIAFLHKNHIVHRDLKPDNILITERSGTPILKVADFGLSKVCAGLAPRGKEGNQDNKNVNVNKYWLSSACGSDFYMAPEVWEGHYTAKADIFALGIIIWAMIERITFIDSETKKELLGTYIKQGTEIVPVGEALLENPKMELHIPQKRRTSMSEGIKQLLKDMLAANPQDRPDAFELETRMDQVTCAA

[25] = target: Serine/threonine-protein kinase TBK1 (Homo sapiens) (UniProt Q9UHD2); test: Binding affinity to wild-type human full length TBK1 (M1 to L729 residues) expressed in mammalian expression system assessed as residual binding level at 10 uM by Kinomescan method relative to control

With O=C(Nc1cc(-c2cn(CCNc3c4c(nc5ccccc35)CCCC4)nn2)ccn1)Nc1cccc2c1C1CCCCN1C2=O (racemic) as the compound, how does the IC50 [1] read?
Its IC50 is 3 µM.

And the Activity [2]?
Its Activity is 55%.

And the Activity [3]?
The Activity was 80%.

And the Activity [4]?
Its Activity is 94%.

And the Activity [5]?
Its Activity is 0.54%.

What about the Activity [6] of the same compound?
The Activity was 100%.

What about the Activity [7] of the same compound?
The Activity was 57%.

What about the Activity [8] of the same compound?
Its Activity is 100%.

What about the Activity [9] of the same compound?
Its Activity is 1.3%.

What about the Activity [10] of the same compound?
Its Activity is 7%.

What about the Activity [11] of the same compound?
Its Activity is 1.3%.

And the Activity [12]?
The Activity was 36%.

What about the Activity [13] of the same compound?
The Activity was 38%.

And the Activity [14]?
Its Activity is 35%.

What about the Activity [15] of the same compound?
Its Activity is 99%.

What about the Activity [16] of the same compound?
Its Activity is 5.7%.

And the Activity [17]?
Its Activity is 11%.

What about the Activity [18] of the same compound?
Its Activity is 99%.

And the Activity [19]?
Its Activity is 81%.

And the Activity [20]?
The Activity was 42%.

And the Activity [21]?
Its Activity is 2.2%.

What about the Activity [22] of the same compound?
Its Activity is 30%.

And the Activity [23]?
The Activity was 15%.

What about the Activity [24] of the same compound?
Its Activity is 97%.

What about the Activity [25] of the same compound?
Its Activity is 10%.
